Here are results for 6 compounds from patent US4118561A, “7-(Substituted)-7H-pyrrolo[3,2-f]quinazoline-1,3-diamines” (priority 1977, dated 1978).

Values after ≈ are worked out from the molar mass of the structure shown. Read-outs that look alike come from different tables or passages of the source.

One data set has as its system S. aureus Smith. The data set can be described thus: In vitro antibacterial activity (MIC), S. aureus Smith. The settings on record: Staphylococcus aureus, 18 h.
The test system of another data set is S. aureus 53-180. The data set is described as follows: In vitro antibacterial activity (MIC), S. aureus 53-180. The note with it: Staphylococcus aureus, 53180, 18 h.
The next data set relates to P. vulgaris 6896. The data set is described as follows: In vitro antibacterial activity (MIC), P. vulgaris 6896. The settings on record: Proteus vulgaris, 6896, 18 h.
The subject of a further data set is E. coli 9637. The data set is described as follows: In vitro antibacterial activity (MIC), E. coli 9637. The note with it: Escherichia coli, 9637, 18 h.
Data set [1] is described as follows: Antimalarial blood schizonticidal test in mice. It counts as in vivo, Plasmodium berghei (infected ICR/HA Swiss mice). On the set-up: ΔMST (increase in mean survival time): unit: days. The note with it: mouse, in vivo, sc, single dose, read-out: Highest Non-Lethal Dose. The text has this:
(§1) In addition, the invention provides compounds which have antimalarial activity in vivo as evidenced by a standard blood schizonticidal test in mice infected with Plasmodium berghei KBG 173.
(§2) Utilizing young ICR/HA Swiss mice and a standard inoculum of Plasmodium berghei KBG 173, it is possible to produce a uniform disease fatal to 100% of untreated animals within 6 to 8 days with a mean survival time of 6.2 days. Test animals weigh from 18 to 22 grams but weight variations in any given experimental or control group are confined to 2-3 grams. All animals in any given test are approximately of the same age. Animals on test are housed in metal-topped plastic cages, given a standard laboratory diet and water ad libitum.
(§3) Test animals receive an intraperitoneal injection of 0.5 ml. of 1:100 dilution of heparinized heart's blood with a minimum of 90% parasitized cells (4 × 10^7 cells), drawn from donor mice infected one week earlier with Plasmodium berghei. The donor strain is maintained by weekly passages in separate groups of mice inoculated with a 0.5 ml. of 1:500 dilution of heparinized heart's blood.
(§4) Test compounds are administered after dissolution or suspension in peanut oil. A single dose is given subcutaneously 72 hours after the mice are infected with Plasmodium berghei. At this time a 10-15 percent parasitemia has developed; the disease is well established but has not produced sufficient debility to alter the response of the host to toxic effects of the drug on test. Since treatment is withheld for three days to permit the infection to become well established and death occurs in untreated controls within 6-8 days, it is felt that this system presents a candidate compound with the maximum challenge. In order to check factors such as changes in the infectivity of Plasmodium berghei or in the susceptibility of the host or to detect technical errors, a group of infected animals treated with pyrimethamine at dose levels producing definite increases in survival time is included in a positive control in every experiment.
(§5) In each experiment test compounds are administered in graded dosages. […] However, if an active drug is toxic for the host, its toxicity may become a limiting factor; continued increases in dose levels also increase the toxic effects and may result in the diminution of survival times. Deaths prior to the sixth day, when untreated controls begin to die, are regarded as nonparasitic and become the basis for toxicity evaluations. […] In calculating mean survival time, toxic deaths and 60-day survivors are not included.
(§6) Compounds are considered active which produce a cure in at least one test animal or which produce significant increases in mean survival times of the treated animals as compared with the mean survival times of untreated controls, provided that no drug related deaths (toxicity) are noted at the active dose.

In data set [2] the test system is Plasmodium berghei KBG 173. The data set can be described thus: Antimalarial blood schizonticidal test in mice. Type of data set: in vivo, Plasmodium berghei (infected ICR/HA Swiss mice). On the set-up: ΔMST (increase in mean survival time): unit: days. The note with it: s.c.; for ED100 / minimal effective dose: Plasmodium berghei, sc, single dose; for ED100: read-out: Lowest Dose Curing All Mice; for minimal effective dose: read-out: Min. Curing Dose; for Cure/Treat at Min. Curing Dose: at the Min. Curing Dose.
Text: as §1, §2, §3, §4, §5, §6

A further data set concerns S. paratyphi 11737. The data set is described as follows: In vitro antibacterial activity (MIC), S. paratyphi 11737. It counts as cell-based. The settings on record: Salmonella enterica, 18 h.
A further data set deals with K. pneumoniae 10031. The data set is described as follows: In vitro antibacterial activity (MIC), K. pneumoniae 10031. The settings on record: Klebsiella pneumoniae, 10031, 18 h.
The test system of the next data set is N. catarrhalis 8193. The data set can be described thus: In vitro antibacterial activity (MIC), N. catarrhalis 8193. The note with it: 18 h.
Where [3] appears, read: infected mice, highest dose with no deaths for any reason.
Setting [4] is: 336 h, alive on day 14 considered cured, no 60-day data.

A word on the MIC: it is the lowest concentration that inhibits growth of the organism.

`Nc1nc(N)c2c(ccc3c2ccn3Cc2ccccc2F)n1` [Example 3]: the MIC came out at 0.488 µg/mL (≈ 1.59 µM) in the data set on S. aureus Smith; 0.244 µg/mL (≈ 0.794 µM) in the data set with S. aureus 53-180; 0.976 µg/mL (≈ 3.18 µM) against P. vulgaris 6896; 0.488 µg/mL (≈ 1.59 µM) with E. coli 9637; 0.976 µg/mL (≈ 3.18 µM) against S. paratyphi 11737; 0.122 µg/mL (≈ 0.397 µM) with K. pneumoniae 10031. In the data set with N. catarrhalis 8193, this compound came in with an MIC of 0.0152 µg/mL (≈ 0.0495 µM). For the same compound, in data set [1] (setting [3]), the MTD stood at 80 mg/kg. For the same compound, the ED100 in data set [2] (1440 h, 60-day survivors) is 80 mg/kg. For the same compound, in data set [2] (1440 h, 60-day survivors), the minimal effective dose stood at 10 mg/kg. In [2] (60-day survivors), the “Cure/Treat at Min. Curing Dose” value was 3/5. Also, the “ΔMST (increase in mean survival time)” value in data set [2] (dose 5 mg. per kg.) is 9.8.
Take `Nc1nc(N)c2c(ccc3c2ccn3Cc2cccc(F)c2)n1` [Example 4]: the MIC turned out to be 0.244 µg/mL (≈ 0.794 µM) against S. aureus Smith; 0.031 µg/mL (≈ 0.101 µM) with S. aureus 53-180; 0.488 µg/mL (≈ 1.59 µM) against P. vulgaris 6896; 0.244 µg/mL (≈ 0.794 µM) in the data set on E. coli 9637; 0.488 µg/mL (≈ 1.59 µM) against S. paratyphi 11737; 0.061 µg/mL (≈ 0.198 µM) with K. pneumoniae 10031. The same compound had an MIC against N. catarrhalis 8193 of less than 0.0009 µg/mL. In addition, in [1] (setting [3]), the MTD was 40 mg/kg. Also, in data set [2] (1440 h, 60-day survivors), the ED100 was 40 mg/kg. In data set [2] (1440 h, 60-day survivors), the minimal effective dose was found to be 10 mg/kg. The “Cure/Treat at Min. Curing Dose” value in [2] (60-day survivors) was 1/5. In [2] (dose 10 mg. per kg.), the “ΔMST (increase in mean survival time)” value came out at 8.3.
Turning to `Nc1nc(N)c2c(ccc3c2ccn3Cc2ccccc2Cl)n1` [Example 6], the MIC in the data set on S. aureus Smith was found to be 0.976 µg/mL (≈ 3.01 µM); with S. aureus 53-180, 0.976 µg/mL (≈ 3.01 µM); with P. vulgaris 6896, 7.81 µg/mL (≈ 24.1 µM); against E. coli 9637 it was 0.976 µg/mL (≈ 3.01 µM); with S. paratyphi 11737 it was 1.95 µg/mL (≈ 6.02 µM); with K. pneumoniae 10031 it was 0.976 µg/mL (≈ 3.01 µM). For the same compound, the MIC in the data set on N. catarrhalis 8193 turned out to be 0.061 µg/mL (≈ 0.188 µM). Further, in data set [1] (setting [3]), the MTD amounted to 160 mg/kg. For the same compound, in [2] (1440 h, 60-day survivors), the ED100 was 20 mg/kg. The minimal effective dose in data set [2] (1440 h, 60-day survivors) came out at 20 mg/kg. Further, the “Cure/Treat at Min. Curing Dose” value in [2] (60-day survivors) is recorded as 5/5. The “ΔMST (increase in mean survival time)” value in [2] (dose 5 mg. per kg.) was 8.3.
As to `Nc1nc(N)c2c(ccc3c2ccn3Cc2cccc(Cl)c2)n1` [Example 7], the MIC against S. aureus Smith was found to be 1.95 µg/mL (≈ 6.02 µM); in the data set with S. aureus 53-180 it was 0.976 µg/mL (≈ 3.01 µM); in the data set on P. vulgaris 6896, 31.3 µg/mL (≈ 96.7 µM); against E. coli 9637, 7.81 µg/mL (≈ 24.1 µM); in the data set on S. paratyphi 11737, 31.3 µg/mL (≈ 96.7 µM); in the data set with K. pneumoniae 10031, 0.976 µg/mL (≈ 3.01 µM). In the data set with N. catarrhalis 8193, this compound returned a minimal inhibitory concentration (MIC) of 0.244 µg/mL (≈ 0.754 µM). In data set [1] (setting [3]), the MTD came out at 160 mg/kg. In addition, the ED100 in data set [2] (1440 h, 60-day survivors) was determined as 10 mg/kg. Further, the minimal effective dose in data set [2] (1440 h, 60-day survivors) came out at 2.5 mg/kg. Moreover, the “Cure/Treat at Min. Curing Dose” value in data set [2] (60-day survivors) is 2/5. Further, in data set [2] (dose 1.25 mg. per kg.), the “ΔMST (increase in mean survival time)” value was 7.7.
For the compound `Nc1nc(N)c2c(ccc3c2ccn3Cc2ccc(Cl)cc2)n1` [Example 8], the MIC against S. aureus Smith is 0.976 µg/mL (≈ 3.01 µM); in the data set with S. aureus 53-180, 0.244 µg/mL (≈ 0.754 µM); with P. vulgaris 6896 it was 0.976 µg/mL (≈ 3.01 µM); against E. coli 9637, 0.976 µg/mL (≈ 3.01 µM); in the data set with S. paratyphi 11737 it was 0.976 µg/mL (≈ 3.01 µM); against K. pneumoniae 10031, 0.122 µg/mL (≈ 0.377 µM). The compound also gave an MIC in the data set on N. catarrhalis 8193 of 0.0038 µg/mL (≈ 0.0117 µM). For the same compound, in data set [1] (setting [3]), the MTD was 40 mg/kg. In addition, in data set [2] (1440 h, 60-day survivors), the ED100 turned out to be 20 mg/kg. Besides, in data set [2] (1440 h, 60-day survivors), the minimal effective dose was 10 mg/kg. Besides, the “Cure/Treat at Min. Curing Dose” value in [2] (60-day survivors) was 2/5. Moreover, the “ΔMST (increase in mean survival time)” value in data set [2] (dose 5 mg. per kg.) was determined as 8.1.
On to `Nc1nc(N)c2c(ccc3c2ccn3Cc2c(Cl)cccc2Cl)n1` [Example 9], for which the MIC was 250 µg/mL (≈ 698 µM) in the data set with S. aureus Smith; 250 µg/mL (≈ 698 µM) against S. aureus 53-180; more than 250 µg/mL with P. vulgaris 6896; more than 250 µg/mL against E. coli 9637; more than 250 µg/mL against S. paratyphi 11737; 15.6 µg/mL (≈ 43.5 µM) in the data set with K. pneumoniae 10031. In addition, the MIC with N. catarrhalis 8193 is 0.488 µg/mL (≈ 1.36 µM). The MTD in [1] (alive on day 14 considered cured, no 60-day data) was 160 mg/kg. Besides, the ED100 in data set [2] (setting [4]) came out at 40 mg/kg. In addition, the minimal effective dose in [2] (setting [4]) was determined as 5 mg/kg. In addition, in [2] (alive on day 14 considered cured), the “Cure/Treat at Min. Curing Dose” value is on record as 1/5.
